Measured values from PubChem BioAssay AID1259411 (Chemical Carcinogenesis Research Information System (CCRIS), 2018).
Calls of active or inactive are those of the source. How the calls were made is not given here.

Test system: rodent carcinogenicity bioassays, tumor incidence
Experiment: CCRIS carcinogenicity studies
How it was run: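 NCI-built, expert-reviewed records of carcinogenicity and related test outcomes (mutagenicity, tumor promotion/inhibition) compiled from published and report sources, historical span 1985-2011, not updated.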

Measured: carcinogen call

CCN(N=O)C(N)=O
active: Species: HAMSTER, Strain/Sex: SYRIAN/FEMALE, Route: GAVAGE, Dose: 0, 12 MG/ML ((0.2 ML OF A SOLUTION IN ETHYL ACETATE/CORN OIL (1:2)) 1/WK FOR 20 WK (STUDY DURATION: LIFE SPAN), Tumor Site: Type of Lesion: SPLEEN: HEMANGIOSARCOMA, FORESTOMACH: SQUAMOUS CELL CARCINOMA OR PAPILLOMA active; positive | Species: HAMSTER, Strain/Sex: SYRIAN/MALE, Route: GAVAGE, Dose: 0, 12 MG/ML ((0.2 ML OF A SOLUTION IN ETHYL ACETATE/CORN OIL (1:2)) 1/WK FOR 20 WK (STUDY DURATION: 20 WK), Tumor Site: Type of Lesion: SPLEEN: HEMANGIOSARCOMA, FORESTOMACH: SQUAMOUS CELL CARCINOMA OR PAPILLOMA active; positive | Species: HAMSTER, Strain/Sex: SYRIAN/MALE, Route: INTRAPERITONEAL, Dose: 60, 274 MG/KG IN SODIUM CHLORIDE/SODIUM CITRATE ONCE, Tumor Site: Type of Lesion: FORESTOMACH: SQUAMOUS CELL PAPILLOMA active; positive | Species: MOUSE, Route: INTRAPERITONEAL, Tumor Site: Type of Lesion: LIVER, KIDNEY, OVARIES, LUNG, HARDERIAN GLAND, LYMPHATIC SYSTEM, STOMACH, Tumor Site: Type of Lesion: LIVER, KIDNEY, OVARIES, LUNG, HARDERIAN GLAND, LYMPHATIC SYSTEM, STOMACH active; positive | Species: MOUSE, Route: SUBCUTANEOUS, Tumor Site: Type of Lesion: LIVER, LUNG, LYMPHATIC SYSTEM, Tumor Site: Type of Lesion: LIVER, LUNG, LYMPHATIC SYSTEM active; positive | Species: RAT, Route: INTRAPERITONEAL, Tumor Site: Type of Lesion: LYMPHATIC SYSTEM: LYMPHOMA, HEMATOPOIETIC SYSTEM (LEUKEMIA) active; positive | Species: RAT, Route: INTRAVENOUS, Tumor Site: Type of Lesion: BRAIN, NERVOUS SYSTEM (PERIPHERAL), HEMATOPOIETIC SYSTEM (LEUKEMIA), UTERUS, VAGINA, Tumor Site: Type of Lesion: BRAIN, NERVOUS SYSTEM (PERIPHERAL), HEMATOPOIETIC SYSTEM (LEUKEMIA), UTERUS, VAGINA active; positive | Species: RAT, Route: ORAL, Tumor Site: Type of Lesion: BRAIN, NERVOUS SYSTEM (PERIPHERAL), HEMATOPOIETIC SYSTEM (LEUKEMIA), Tumor Site: Type of Lesion: BRAIN, NERVOUS SYSTEM (PERIPHERAL), HEMATOPOIETIC SYSTEM (LEUKEMIA) active; positive | Species: RAT, Route: PRE-NATAL EXPOSURE, Tumor Site: Type of Lesion: NERVOUS SYSTEM active; positive | Species: RAT, Route: SUBCUTANEOUS, Tumor Site: Type of Lesion: BRAIN, NERVOUS SYSTEM (PERIPHERAL) active; positive | Species: RAT, Strain/Sex: F344/FEMALE, Route: GAVAGE, Dose: 0, 6, 12 MG/ML (TOTAL DOSE 0; 0.4; 0.8 MMOL) IN 2 ML ETHYL ACETATE AND CORN OIL (1:2) 2/WK FOR 20 WK (STUDY DURATION: LI, Dose: 0, 6, 12 MG/ML (TOTAL DOSE 0; 0.4; 0.8 MMOL) IN 2 ML ETHYL ACETATE AND CORN OIL (1:2) 2/WK FOR 20 WK (STUDY DURATION: LI, Tumor Site: Type of Lesion: FORESTOMACH: SQUAMOUS CELL CARCINOMA, LUNG: TUMOR, MAMMARY GLAND: TUMOR, Tumor Site: Type of Lesion: FORESTOMACH: SQUAMOUS CELL CARCINOMA, LUNG: TUMOR, MAMMARY GLAND: TUMOR active; positive | Species: RAT, Strain/Sex: F344/FEMALE, Route: GAVAGE, Dose: 0, 6, 12 MG/ML IN 0.2 ML ETHYL ACETATE AND CORN OIL 2/WK FOR 20 WK (STUDY DURATION: LIFESPAN), Dose: 0, 6, 12 MG/ML IN 0.2 ML ETHYL ACETATE AND CORN OIL 2/WK FOR 20 WK (STUDY DURATION: LIFESPAN), Tumor Site: Type of Lesion: FORESTOMACH: TUMOR, LUNG: TUMOR, MAMMARY GLAND: TUMOR, UTERUS: TUMOR, ZYMBAL GLAND: TUMOR, Tumor Site: Type of Lesion: FORESTOMACH: TUMOR, LUNG: TUMOR, MAMMARY GLAND: TUMOR, UTERUS: TUMOR, ZYMBAL GLAND: TUMOR active; positive | Species: RAT, Strain/Sex: F344/FEMALE, Route: INTRAVESICULAR, Dose: 0, 1.2 MG 2/WK FOR 20 WK (STUDY DURATION: LIFETIME), Tumor Site: Type of Lesion: BLADDER: TUMOR active; positive | Species: RAT, Strain/Sex: F344/FEMALE, Route: INTRAVESICULAR, Dose: 0, 2.4 MG 2/WK FOR 14 WK (STUDY DURATION: LIFETIME), Tumor Site: Type of Lesion: BLADDER: TUMOR active; positive | Species: RAT, Strain/Sex: F344/FEMALE, Route: ORAL, Dose: 0, 0.3, 1, 3, 10 PPM IN DRINKING WATER FOR 104 WK (STUDY DURATION: 111 WK), Dose: 0, 0.3, 1, 3, 10 PPM IN DRINKING WATER FOR 104 WK (STUDY DURATION: 111 WK), Tumor Site: Type of Lesion: BRAIN: GLIOMA, UTERUS: ENDOMETRIAL STROMAL POLYP, MAMMARY GLAND: ADENOCARCINOMA, HEMATOPOIETIC SYSTEM: MONONUCLEAR CELL, Tumor Site: Type of Lesion: BRAIN: GLIOMA, UTERUS: ENDOMETRIAL STROMAL POLYP, MAMMARY GLAND: ADENOCARCINOMA, HEMATOPOIETIC SYSTEM: MONONUCLEAR CELL active; positive
